pKi: −log10 of the molar value.
Columns and labels:
HIV-1 protease [1] = molecular target: T1, HIV-1 protease (Human immunodeficiency virus type 1 group M subtype B, UniProt P04585); assay: biochemical; details: for inhibition at 0.37 µM: read-out: HIV-1 Protease % Inhib, dose 0.370 uM; for inhibition at 1.1 µM: read-out: HIV-1 Protease % Inhib, dose 1.100 uM; for inhibition at 3.3 µM: read-out: HIV-1 Protease % Inhib, dose 3.300 uM; for inhibition at 10 µM: read-out: HIV-1 Protease % Inhib, dose 10.000 uM; for inhibition at 30 µM: read-out: HIV-1 Protease % Inhib, dose 30.000 uM; for inhibition at 0.123 µM: read-out: HIV-1 Protease % Inhib, dose 0.123 uM
Method in brief: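 Percent inhibition derived from fluorescent cleavage product separated by filtration after streptavidin-bead capture of intact biotin/FITC substrate. Reaction: enzyme (10 μl, 0.1 μM stock) with substrate (20 μl, 0.2 μM stock) and compound, 1 h at room temperature in dark, pH 5.5 acetate buffer with 1.0 M NaCl and 0.05% NP-40.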

HIV-1 protease [2] = molecular target: T1, HIV-1 protease; assay: biochemical; details: read-out: HIV-1 FITC KI
Method in brief: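 Enzyme (40 nM stock) and substrate (200 μM stock) incubated with inhibitor, 24–48 two-fold serial concentrations, for 90 min at room temperature, then quenched with avidin beads. Nonlinear least-squares analysis gives Ki; a known-Ki inhibitor validates each run.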

Structure (SMILES) | inhibition at 0.37 µM (HIV-1 protease [1]) [%] | inhibition at 1.1 µM (HIV-1 protease [1]) [%] | inhibition at 3.3 µM (HIV-1 protease [1]) [%] | inhibition at 10 µM (HIV-1 protease [1]) [%] | inhibition at 30 µM (HIV-1 protease [1]) [%] | pKi (HIV-1 protease [2]) | inhibition at 0.123 µM (HIV-1 protease [1]) [%] | HIV-1 Protease % Inhib (HIV-1 protease [1]; dose 1.100 uM) [%] | HIV-1 Protease % Inhib (HIV-1 protease [1]; dose 3.300 uM) [%] | HIV-1 Protease % Inhib (HIV-1 protease [1]; dose 10.000 uM) [%] | HIV-1 Protease % Inhib (HIV-1 protease [1]; dose 30.000 uM) [%] | HIV-1 Protease % Inhib (HIV-1 protease [1]; dose 0.123 uM) [%]
O=c1oc2c(c(O)c1C(c1ccccc1)C1CC1)CCCCCC2CC1CCCOC1 (stereo not drawn) [Example 179, 3-(Cyclopropylphenylmethyl)-5,6,7,8,9,10-hexahydro-4-hydroxy-10-[(tetrahydro-2H-pyran-3-yl)methyl]-2H-cycloocta[b]pyran-2-one] | 38.6 | 71.6 | 87.2 | 93.7 | 91.1 | 7.72 | – | – | – | – | – | –
O=c1oc2c(c(O)c1C(c1ccccc1)C1CC1)CCCCC2Cc1ccccc1 (stereo not drawn) [Example 182, 3-(Cyclopropylphenylmethyl)-6,7,8,9-tetrahydro-4-hydroxy-9-(phenylmethyl)-cyclohepta[b]pyran-2(5H)-one] | 22.3 | 51 | 83.7 | 99.2 | 98.7 | 6.93 | – | – | – | – | – | –
CC(C)CC1CCCCc2c1oc(=O)c(C(c1ccccc1)C1CC1)c2O (stereo not drawn) [Example 183, 3-(Cyclopropylphenylmethyl)-6,7,8,9-tetrahydro4-hydroxy-9-(2-methylpropyl)-cyclohepta[b]pyran-2(5H)-one] | 56.5 | 85.5 | 97.3 | 95.8 | 89.7 | 7.89 | 20.9 | – | – | – | – | –
CC(C)CCC1CCCCc2c1oc(=O)c(C(c1ccccc1)C1CC1)c2O (stereo not drawn) [Example 184, 3-(Cyclopropylphenylmethyl)-6,7,8,9-tetrahydro4-hydroxy-9-(3-methylbutyl)-cyclohepta[b]pyran-2(5H)-one] | 18 | 60.7 | 86 | 96.5 | 93.1 | 7.34 | – | – | – | – | – | –
CCC1CCCCc2c1oc(=O)c(C(c1ccccc1)C1CC1)c2O (stereo not drawn) [Example 185, 3-(Cyclopropylphenylmethyl)-9-ethyl-6,7,8,9-tetrahydro-4-hydroxy-cyclohepta[b]pyran-2(5H)-one] | 40.3 | 71.5 | 92.6 | 97.6 | 91.8 | 7.66 | 18.7 | – | – | – | – | –
CCCC1CCCCc2c1oc(=O)c(C(c1ccccc1)C1CC1)c2O (stereo not drawn) [Example 188, 3-(Cyclopropylphenylmethyl)-6,7,8,9-tetrahydro-4-hydroxy-9-propyl-cyclohepta[b]pyran-2(5H)-one] | 57 | 82.2 | 88.4 | 88.3 | 84.5 | 7.59 | 27.3 | – | – | – | – | –
O=c1oc2c(c(O)c1C(c1ccccc1)C1CC1)CCCCC2CC1CCCO1 (stereo not drawn) [Example 189, 3-(Cyclopropylphenylmethyl)-6,7,8,9-tetrahydro4-hydroxy-9-[(tetrahydro-2-furanyl)methyl]-cyclohepta[b]pyran-2(5H)-one] | 37.6 | 69.8 | 89.3 | 98.1 | 99.3 | 7.44 | 15.7 | – | – | – | – | –
COCCC1CCCCc2c1oc(=O)c(C(c1ccccc1)C1CC1)c2O (stereo not drawn) [Example 194, 3-(Cyclopropylphenylmethyl)-6,7,8,9-tetrahydro4-hydroxy-9-(2-methoxyethyl)-cyclohepta[b]pyran-2(5H)-one] | 39.7 | – | – | – | – | 7.55 | – | 81.89 | 102.84 | 108.17 | 107.45 | –
O=c1oc2c(c(O)c1C(c1ccccc1)C1CC1)CCCCC2C(O)C1CC1 (stereo not drawn) [Example 195, 9-(Cyclopropylhydroxymethyl)-3-(cyclopropylphenylmethyl)-6,7,8,9-tetrahydro-4-hydroxy-cyclohepta[b]pyran-2(5H)-one] | 23.5 | 71.4 | 90.8 | 108 | 117 | 7.66 | – | – | – | – | – | –
CC(C)(C)OC(=O)NCCC(=O)Nc1cccc(C(c2c(O)c3c(oc2=O)CCCCCC3)C2CC2)c1 (stereo not drawn) [Example 196, Carbamic acid, [3-[[3-[cyclopropyl(5,6,7,8,9,10-hexahydro-4-hydroxy-2-oxo-2H-cycloocta[b]pyran-3-yl)methyl]phenyl]amino]-3-oxopropyl]-, 1,1-dimethylethyl ester] | 81.2 | 91.8 | 97.9 | 105 | 95.8 | 8.52 | 68 | – | – | – | – | –
O=C(CCn1ccc2ccccc21)Nc1cccc(C(c2c(O)c3c(oc2=O)CCCCCC3)C2CC2)c1 (stereo not drawn) [Example 197, 1H-Indole-1-propanamide, N-[3-[cyclopropyl(5,6,7,8,9,10-hexahydro-4-hydroxy-2-oxo-2H-cycloocta[b]pyran-3-yl)methyl]phenyl]-] | 65.6 | 76.6 | 88.7 | 91.8 | 89.6 | 7.85 | 34 | – | – | – | – | –
Cc1ccc(S(=O)(=O)n2cncc2C[C@H](NC(=O)OC(C)(C)C)C(=O)Nc2cccc(C(c3c(O)c4c(oc3=O)CCCCCC4)C3CC3)c2)cc1 (stereo partly drawn) [Example 199, Carbamic acid, [2-[[3-[cyclopropyl(5,6,7,8,9,10-hexahydro-4-hydroxy-2-oxo-2H-cycloocta[b]pyran-3-yl)methyl]phenyl]amino]-1-[[1-(S)-[(4-methylphenyl)sulfonyl]-1H-imidazol-5-yl]methyl]-2-oxoethyl]-, 1,1-dimethylethyl ester] | 86.5 | 97.6 | 106 | 114 | 107 | 7.98 | 56 | – | – | – | – | –
CC(C)(C)OC(=O)NCC(=O)Nc1cccc(C(c2c(O)c3c(oc2=O)CCCCCC3)C2CC2)c1 (stereo not drawn) [Example 200, Carbamic acid, [2-[[3-[cyclopropyl(5,6,7,8,9,10-hexahydro-4-hydroxy-2-oxo-2H-cycloocta[b]pyran-3-yl)methyl]phenyl]amino]-2-oxyethyl]-, 1,1-dimethylethyl ester] | 88.5 | 90.9 | 103 | 105 | 99.1 | 8.54 | 64.6 | – | – | – | – | –
O=C(CCN1CCCCC1)Nc1cccc(C(c2c(O)c3c(oc2=O)CCCCCC3)C2CC2)c1 (stereo not drawn) [Example 205, 1-Piperidinepropanamide, N-[3-[cyclopropyl(5,6,7,8,9,10-hexahydro4-hydroxy-2-oxo-2H-cycloocta[b]pyran-3-yl)methyl]phenyl]-] | 56.4 | 76.6 | 94.2 | 109 | 104 | 7.58 | 12.6 | – | – | – | – | –
O=C(Cc1ccccc1)Nc1cccc(C(c2c(O)c3c(oc2=O)CCCCCC3)C2CC2)c1 (stereo not drawn) [Example 207, N-[3-[Cyclopropyl(5,6,7,8,9,10-hexahydro-4-hydroxy-2-oxo-2H-cycloocta[b]pyran-3-yl)methyl]phenyl]-benzacetamide] | 44.1 | 74 | 93.8 | 83 | 78.7 | 7.48 | 14 | – | – | – | – | –
CCCC(=O)Nc1cccc(C(c2c(O)c3c(oc2=O)CCCCCC3)C2CC2)c1 (stereo not drawn) [Example 209, N-[3-[Cyclopropyl(5,6,7,8,9,10-hexahydro-4-hydroxy-2-oxo-2H-cycloocta[b]pyran-3-yl)methyl]phenyl]-butanamide] | 43.2 | 80 | 96 | 104 | 100 | 7.62 | – | – | – | – | – | –
O=C(Nc1cccc(C(c2c(O)c3c(oc2=O)CCCCCC3)C2CC2)c1)c1ccc(F)cc1 (stereo not drawn) [Example 210, Benzamide, N-[3-[cyclopropyl(5,6,7,8,9,10-hexahydro4-hydroxy-2-oxo-2H-cycloocta[b]pyran-3-yl)methyl]phenyl]-4-fluoro-] | 31.5 | 58.1 | 77.6 | 88.8 | 97.3 | 7.26 | 19.7 | – | – | – | – | –
O=C(Nc1cccc(C(c2c(O)c3c(oc2=O)CCCCCC3)C2CC2)c1)c1ccccc1 (stereo not drawn) [Example 211, Benzamide, N-[3-[cyclopropyl(5,6,7,8,9,10-hexahydro-4-hydroxy-2-oxo-2H-cycloocta[b]pyran-3-yl)methyl]phenyl]] | 37.2 | 64.5 | 89.6 | 101 | 101 | 7.38 | – | – | – | – | – | –
CC(C)(C)OC(=O)N[C@@H](Cc1c[nH]cn1)C(=O)Nc1cccc(C(c2c(O)c3c(oc2=O)CCCCCC3)C2CC2)c1 (stereo partly drawn) [Example 213, Carbamic acid, [2-[[3-[cyclopropyl(5,6,7,8,9,10-hexahydro-4-hydroxy-2-oxo-2H-cycloocta[b]pyran-3-yl)methyl]phenyl]amino]-1-(S)-(1H-imidazol-4-ylmethyl)-2-oxoethyl]-, 1,1-dimethylethyl ester] | 82.2 | 94.5 | 102 | 109 | 99.3 | 8.46 | – | – | – | – | – | 74.4
